Tests used:
[1] = tested on: mice treated with mitomycin C; experiment: Tests on leukopenia induced by mitomycin C; format: in vivo; settings: for Number of leukocytes after 5 days / Number of leukocytes after 10 days / Number of leukocytes after 12 days / protective effect against leukopenia and toxicity of mitomycin C (in words): mice; for Number of leukocytes after 5 days / Number of leukocytes after 10 days / Number of leukocytes after 12 days / % Mice surviving after 5 days / % Mice surviving after 10 days / % Mice surviving after 12 days: mitomycin C 50 μg/mouse i.p. five days, oral carnitine(s) 300 mg/kg, quercetin 100 mg/kg; for protective effect against leukopenia and toxicity of mitomycin C (in words): oral
Experimental: To evaluate the immunostimulatory effect of the combination of propionyl L-carnitine or carnitine mixture plus quercetin, the effect of these products was evaluated on the toxic and immunosuppressive activity induced by mitomycin C.

[2] = tested on: oedema induced in the rat paw by carrageenin; experiment: Anti-inflammatory activity tests: carrageenin-induced oedema of the rat paw; format: in vivo; settings: for anti-oedema / anti-inflammatory effect (in words): rat paw, carrageenin
Experimental: To this end, 0.1 cc of a 1% carrageenin solution (Sigma, St, Louis, USA) were injected in the subplantar zone of the rat paw. The volume of oedema of the paw was measured by means of a mercury plethysmograph at intervals of one hour over the four-hour period following injection of carrageenin. One hour prior to injection, of carrageenin the animals received oral administrations either of propionyl L-carnitine (300 mg/kg and 150 mg/kg), or carnitine mixture (acetyl L-carnitine, propionyl L-carnitine, isovaleryl L-carnitine; 300 mg/kg and 150 mg/kg), or quercetin (100 mg/kg and 50 mg/kg), or various combinations of these compounds.

[3] = tested on: anaphylactic shock in guinea-pigs; experiment: Anaphylactic shock tests (horse serum sensitisation); format: in vivo; settings: oral; for Surviving/treated animals: carnitine(s) 300 mg/kg, quercetin 50 mg/kg
Experimental: These tests were performed using male albino guinea-pigs with a mean weight of 300 g; the animals received intraperitoneal injections of 1 cc of horse serum diluted 1:10.
After twenty-five days, intravenous injection of 1 cc of horse serum triggered anaphylactic shock with onset of bronchospasm and death of the animals. Five days before the shock-triggering injection, the sensitised animals were treated orally either with propionyl L-carnitine (300 mg/kg), or with carnitine mixture (300 mg/kg), or with quercetin (50 mg/kg), or with various combinations of these compounds.

[4] = tested on: hypercholesterolaemic rabbits; experiment: Antiatherosclerotic activity tests: liver total cholesterol and triglycerides; format: in vivo, New Zealand rabbits; settings: thirty days, carnitine(s) 400 mg/kg, quercetin 50 mg/kg
Experimental: The liver was then removed from each animal and used to assay total cholesterol and triglycerides according to the method of Dehoff (Dehoff J. L., Clin. Chem., 24, 433, 1978) and Levy (Levy A., Advances in Automated Analysis, 497-Thurman-Miami, 1972). Arteriosclerotic lesions at the level of the heart and aorta were assessed according to the Klurfield method ([…]. Med., 10, 35, 1979), grading them from I to IV according to the severity of the damage detected.

[5] = tested on: experimental atherosclerosis in rabbits; experiment: Antiatherosclerotic activity tests: biochemical and histological parameters, arteriosclerotic lesions of heart and aorta; format: in vivo, New Zealand rabbits; settings: rabbit, cholesterol-enriched diet, thirty days; carnitine(s) 400 mg/kg, quercetin 50 mg/kg
Experimental: (§1) In these tests, experimental atherosclerosis was induced in rabbits by administering 0.5% of cholesterol by weight together with the standard diet.
The liver was then removed from each animal and used to assay total cholesterol and triglycerides according to the method of Dehoff (Dehoff J. L., Clin. Chem., 24, 433, 1978) and Levy (Levy A., Advances in Automated Analysis, 497—Thurman—Miami, 1972). Arteriosclerotic lesions at the level of the heart and aorta were assessed according to the Klurfield method (Klurfield D. M., J. Med., 10, 35, 1979), grading them from I to IV according to the severity of the damage detected.
The greatest degree of protective activity, however, is that achieved when carnitine and quercetin are administered in combination.

[6] = tested on: platelet aggregation induced by collagen; experiment: Platelet aggregation tests (collagen-induced, Born photometric method); format: cell-based, human (healthy volunteers); settings: 10 minutes' incubation
Experimental: Blood samples taken from healthy volunteers were used for these tests.
The blood samples were treated with sodium citrate and centrifuged for 8 minutes at 100 rpm. The number of platelets was counted and brought to a fixed level of […] by adding platelet poor plasma (PPP) where necessary.
Platelet aggregation was induced using collagen (2.5 μg/ml, 5 μg/ml) as the aggregating agent and determined photometrically according to the method described by Born (Born G. V. R., Nature, 194, 927, 1962).
Platelet aggregation was measured in baseline conditions and after 10 minutes' incubation with quercetin or propionyl L-carnitine or with a combination of quercetin and propionyl L-carnitine in the same amounts.
The propionyl L-carnitine doses were 10 μg and 20 μg/ml, while the quercetin doses were 0.1 μg and 0.25 μg/ml.

[7] = tested on: hypercholesterolaemic rabbits; experiment: Antiatherosclerotic activity tests: plasma lipoprotein concentrations; format: in vivo, New Zealand rabbits; settings: thirty days, carnitine(s) 400 mg/kg, quercetin 50 mg/kg
Excerpt: as §1
After thirty days' treatment, a blood sample was taken from the central artery of the ear in each animal and used to assay the lipoproteins present according to the method described by Hatch (Hatch F. T., Advan. Lipid Res., 6, 1, 1968).

[8] = Toxicology, single oral administration in the rat; settings: up to 4 g/kg
[9] = rat, oral, carnitine(s) 150 mg/kg and/or quercetin 50 mg/kg
[10] = rat, oral, carnitine(s) 300 mg/kg and/or quercetin 100 mg/kg

| SMILES | Number of leukocytes after 5 days [1] | Number of leukocytes after 10 days [1] | Number of leukocytes after 12 days [1] | protective effect against leukopenia and toxicity of mitomycin C (in words) [1] | % Mice surviving after 5 days [1] | % Mice surviving after 10 days [1] | % Mice surviving after 12 days [1] | anti-oedema / anti-inflammatory effect (in words) [2] | % reduction of carrageenin-induced oedema after 1 h [2, 10] | % reduction of carrageenin-induced oedema after 2 h [2, 10] | % reduction of carrageenin-induced oedema after 3 h [2, 10] | protection against death by anaphylactic shock (in words) [3] | Surviving/treated animals [3] | Liver triglycerides [4] | biochemical and histological parameters of experimentally induced atherosclerosis [5] | Plasma HDL [7] | Plasma LDL [7] | Plasma VLDL [7] | further results |
| --- | --- | --- | --- | --- | --- | --- | --- | --- | --- | --- | --- | --- | --- | --- | --- | --- | --- | --- | --- |
| O=c1c(O)c(-c2ccc(O)c(O)c2)oc2cc(O)cc(O)c12 [Quercetin, quercetin] | 5,600 ± 480 | 4,800 ± 410 | 2,800 ± 310 | modest | 70% | 30% | 30% | modest anti-oedema effect | 18 ± 1.2% | 22 ± 2.5% | 20 ± 19% | no protective effect | 3/10 | 130 ± 14.5 mg/g | good inhibitory activity | 28.6 ± 3.8 mg/dL | 298 ± 30.1 mg/dL | 816 ± 37.5 mg/dL | % reduction of carrageenin-induced oedema after 1 h [2, 9]: 8 ± 0.6%; % reduction of carrageenin-induced oedema after 2 h [2, 9]: 10 ± 0.2%; % reduction of carrageenin-induced oedema after 4 h [2, 10]: 18 ± 1.5%; reduction of collagen-induced platelet aggregation ([6]; quercetin 0.25 μg): 50% |
| CCC(=O)O[C@H](CC(=O)[O-])C[N+](C)(C)C [Propionyl L-carnitine, propionyl L-carnitine] | 6,000 ± 310 | 5,400 ± 280 | 2,100 ± 125 | modest | 60% | 45% | 30% | modest anti-oedema effect | 12 ± 0.1% | 10 ± 0.2% | 6 ± 0.5% | no protective effect | 2/10 | 165 ± 14.5 mg/g | capable of reducing | 26.4 ± 3.9 mg/dL | 380 ± 21.5 mg/dL | 855 ± 32.5 mg/dL | modification of platelet aggregating action induced by collagen ([6]; propionyl L-carnitine 10 μg and 20 μg/ml): did not prove capable of modifying; signs of toxicity [8]: without any signs of toxicity |

— patent publication US20030206895A1, “Antioxidant composition comprising propionyl L-carnitine and a flavonoid against throm-bosis and atherosclerosis” (priority 1998, published 2003)
